Reference: ChEMBL document CHEMBL4765323, “Design, synthesis, and biological evaluation of novel miconazole analogues containing selenium as potent antifungal agents” (Eur J Med Chem, 2020)
≈ marks a conversion by molar mass, not a printed value.

Columns and labels:
Assay type in all cases: functional
Candida albicans [1] = assay: Antifungal activity against fluconazole-resistant Candida albicans CaR measured after 24 hrs by micro-broth dilution assay
Candida albicans [2] = assay: Antifungal activity against Candida albicans ATCC SC5314 measured after 24 hrs by micro-broth dilution assay
Candida albicans [3] = assay: Antifungal activity against Candida albicans CPCC400616 measured after 24 hrs by micro-broth dilution assay
Candida albicans [4] = assay: Antifungal activity against fluconazole-resistant Candida albicans strain 904 measured after 24 hrs by micro-broth dilution assay
Candida albicans [5] = assay: Antifungal activity against Candida albicans 901 measured after 24 hrs by micro-broth dilution assay
Nakaseomyces glabratus = assay: Antifungal activity against clinical isolate Candida glabrata measured after 24 hrs by micro-broth dilution assay
Pichia kudriavzevii = assay: Antifungal activity against Candida krusei AS 2.1045 measured after 24 hrs by micro-broth dilution assay
Candida albicans [6] = assay: Antifungal activity against fluconazole-resistant Candida albicans 17 measured after 24 hrs by micro-broth dilution assay
Cryptococcus neoformans = assay: Antifungal activity against Cryptococcus neoformans CGMCC2.3161 measured after 72 hrs by micro-broth dilution assay
Candida albicans [7] = assay: Antifungal activity against fluconazole-resistant Candida albicans 632 measured after 24 hrs by micro-broth dilution assay
[Candida] zeylanoides = Antifungal activity against Candida zeylanoides CMGCC2.3739 measured after 24 hrs by micro-broth dilution assay; details: Dujonia zeylanoides
Aspergillus fumigatus = assay: Antifungal activity against Aspergillus fumigatus CGMCC 3.7795 measured after 72 hrs by micro-broth dilution assay
Candida parapsilosis = assay: Antifungal activity against Candida parapsilosis ATCC 22019 measured after 24 hrs by micro-broth dilution assay; details: Lodderomyces parapsilosis

SMILES	MIC (Candida albicans [1]) [µg/mL]	MIC (Candida albicans [2]) [µg/mL]	MIC (Candida albicans [3]) [µg/mL]	MIC (Candida albicans [4]) [µg/mL]	MIC (Candida albicans [5]) [µg/mL]	MIC (Nakaseomyces glabratus) [µg/mL]	MIC (Pichia kudriavzevii) [µg/mL]	MIC (Candida albicans [6]) [µg/mL]	MIC (Cryptococcus neoformans) [µg/mL]	MIC (Candida albicans [7]) [µg/mL]	MIC ([Candida] zeylanoides) [µg/mL]	MIC (Aspergillus fumigatus) [µg/mL]	MIC (Candida parapsilosis) [µg/mL]
COc1cc(C[Se]C(Cn2ccnc2)c2ccc(F)cc2F)cc(OC)c1 (stereo unspecified)	128 (≈ 293 µM)	0.13 (≈ 0.297 µM)	0.5 (≈ 1.14 µM)	4 (≈ 9.15 µM)	2 (≈ 4.57 µM)	0.5 (≈ 1.14 µM)	8 (≈ 18.3 µM)	8 (≈ 18.3 µM)	8 (≈ 18.3 µM)	8 (≈ 18.3 µM)	1 (≈ 2.29 µM)	8 (≈ 18.3 µM)	8 (≈ 18.3 µM)
COc1cc(C[Se]C(Cn2ccnc2)c2ccc(Cl)cc2Cl)cc(OC)c1 (stereo unspecified)	4 (≈ 8.51 µM)	0.13 (≈ 0.276 µM)	0.13 (≈ 0.276 µM)	128 (≈ 272 µM)	4 (≈ 8.51 µM)	0.25 (≈ 0.532 µM)	8 (≈ 17 µM)	32 (≈ 68 µM)	0.5 (≈ 1.06 µM)	32 (≈ 68 µM)	1 (≈ 2.13 µM)	1 (≈ 2.13 µM)	0.5 (≈ 1.06 µM)
Clc1ccc(C(Cn2ccnc2)[Se]Cc2ccccc2)c(Cl)c1 (stereo unspecified)	4 (≈ 9.75 µM)	0.02 (≈ 0.0488 µM)	0.06 (≈ 0.146 µM)	0.5 (≈ 1.22 µM)	1 (≈ 2.44 µM)	0.5 (≈ 1.22 µM)	0.5 (≈ 1.22 µM)	4 (≈ 9.75 µM)	0.5 (≈ 1.22 µM)	2 (≈ 4.88 µM)	0.5 (≈ 1.22 µM)	0.5 (≈ 1.22 µM)	0.25 (≈ 0.609 µM)
COc1ccc(C[Se]C(Cn2ccnc2)c2ccc(Cl)cc2Cl)cc1 (stereo unspecified)	32 (≈ 72.7 µM)	0.13 (≈ 0.295 µM)	0.13 (≈ 0.295 µM)	128 (≈ 291 µM)	16 (≈ 36.3 µM)	0.5 (≈ 1.14 µM)	8 (≈ 18.2 µM)	16 (≈ 36.3 µM)	0.25 (≈ 0.568 µM)	128 (≈ 291 µM)	8 (≈ 18.2 µM)	1 (≈ 2.27 µM)	0.5 (≈ 1.14 µM)
Clc1ccc(C(Cn2ccnc2)[Se]Cc2ccc(Br)cc2)c(Cl)c1 (stereo unspecified)	128 (≈ 262 µM)	0.06 (≈ 0.123 µM)	0.25 (≈ 0.511 µM)	128 (≈ 262 µM)	64 (≈ 131 µM)	0.5 (≈ 1.02 µM)	32 (≈ 65.4 µM)	8 (≈ 16.4 µM)	0.5 (≈ 1.02 µM)	> 128	2 (≈ 4.09 µM)	1 (≈ 2.04 µM)	4 (≈ 8.18 µM)
Clc1ccc(C[Se]C(Cn2ccnc2)c2ccc(Cl)cc2Cl)c(Cl)c1 (stereo unspecified)	128 (≈ 267 µM)	0.06 (≈ 0.125 µM)	0.06 (≈ 0.125 µM)	8 (≈ 16.7 µM)	32 (≈ 66.8 µM)	0.25 (≈ 0.522 µM)	2 (≈ 4.17 µM)	16 (≈ 33.4 µM)	0.5 (≈ 1.04 µM)	64 (≈ 134 µM)	2 (≈ 4.17 µM)	0.5 (≈ 1.04 µM)	2 (≈ 4.17 µM)
COc1cccc(C[Se]C(Cn2ccnc2)c2ccc(F)cc2F)c1 (stereo unspecified)	4 (≈ 9.82 µM)	0.13 (≈ 0.319 µM)	0.06 (≈ 0.147 µM)	16 (≈ 39.3 µM)	8 (≈ 19.6 µM)	1 (≈ 2.46 µM)	2 (≈ 4.91 µM)	16 (≈ 39.3 µM)	0.5 (≈ 1.23 µM)	2 (≈ 4.91 µM)	1 (≈ 2.46 µM)	2 (≈ 4.91 µM)	0.5 (≈ 1.23 µM)
Cc1ccc(C[Se]C(Cn2ccnc2)c2ccc(Cl)cc2Cl)cc1 (stereo unspecified)	16 (≈ 37.7 µM)	0.13 (≈ 0.306 µM)	0.03 (≈ 0.0707 µM)	> 128	64 (≈ 151 µM)	1 (≈ 2.36 µM)	4 (≈ 9.43 µM)	32 (≈ 75.4 µM)	0.25 (≈ 0.589 µM)	128 (≈ 302 µM)	16 (≈ 37.7 µM)	2 (≈ 4.71 µM)	1 (≈ 2.36 µM)
Fc1ccc(C(Cn2ccnc2)[Se]Cc2ccccc2)c(F)c1 (stereo unspecified)	4 (≈ 10.6 µM)	0.13 (≈ 0.345 µM)	0.25 (≈ 0.663 µM)	64 (≈ 170 µM)	2 (≈ 5.3 µM)	1 (≈ 2.65 µM)	0.25 (≈ 0.663 µM)	8 (≈ 21.2 µM)	0.5 (≈ 1.33 µM)	4 (≈ 10.6 µM)	0.5 (≈ 1.33 µM)	1 (≈ 2.65 µM)	0.13 (≈ 0.345 µM)
Fc1ccc(C(Cn2ccnc2)[Se]Cc2ccc(Cl)cc2)c(F)c1 (stereo unspecified)	16 (≈ 38.9 µM)	0.03 (≈ 0.0729 µM)	0.5 (≈ 1.21 µM)	2 (≈ 4.86 µM)	8 (≈ 19.4 µM)	1 (≈ 2.43 µM)	0.5 (≈ 1.21 µM)	8 (≈ 19.4 µM)	0.5 (≈ 1.21 µM)	64 (≈ 155 µM)	1 (≈ 2.43 µM)	1 (≈ 2.43 µM)	0.13 (≈ 0.316 µM)
Cc1cccc(C[Se]C(Cn2ccnc2)c2ccc(F)cc2F)c1 (stereo unspecified)	2 (≈ 5.11 µM)	0.06 (≈ 0.153 µM)	0.13 (≈ 0.332 µM)	1 (≈ 2.56 µM)	4 (≈ 10.2 µM)	1 (≈ 2.56 µM)	1 (≈ 2.56 µM)	8 (≈ 20.4 µM)	0.5 (≈ 1.28 µM)	16 (≈ 40.9 µM)	1 (≈ 2.56 µM)	2 (≈ 5.11 µM)	0.25 (≈ 0.639 µM)
Fc1ccc(C(Cn2ccnc2)[Se]Cc2ccccc2Cl)c(F)c1 (stereo unspecified)	2 (≈ 4.86 µM)	0.01 (≈ 0.0243 µM)	0.25 (≈ 0.607 µM)	0.5 (≈ 1.21 µM)	1 (≈ 2.43 µM)	1 (≈ 2.43 µM)	0.25 (≈ 0.607 µM)	1 (≈ 2.43 µM)	0.5 (≈ 1.21 µM)	0.5 (≈ 1.21 µM)	0.25 (≈ 0.607 µM)	2 (≈ 4.86 µM)	0.06 (≈ 0.146 µM)
